Data published in US8703768B2, “Nitrogen containing heteroaryl compounds” (Hoffmann-La Roche Inc., priority 2010, dated 2014).

molecular target: human PDE10A (Homo sapiens (Human), UniProt Q9Y233); assay: human PDE10A full length Scintillation Proximity Assay (SPA); assay type: biochemical; conditions: 50 nM cGMP and 50 nM [3H]-cGMP, 20 minutes at room temperature; read-out: PDE10A inhibition IC50
Method: The following test was carried out in order to determine the activity of the compounds of the present invention.
The human PDE10A full length assay was performed in 96-well micro titer plates. […] Non-specific activity was tested without the enzyme. The reaction was initiated by the addition of the substrate solution (cGMP and [^3H]-cGMP) and allowed to progress for 20 minutes at room temperature. The reaction was terminated by adding 25 μl of YSi-SPA scintillation beads (GE Healthcare, cat. # RPNQ0150) in 18 mM zinc sulphate solution (stop reagent). After 1 h under shaking, the plate was centrifuged one minute at 170 g to allow beads to settle. Afterwards, radioactive counts were measured on a Perkin Elmer TopCount Scintillation plate reader.

Chain of human PDE10A (Q9Y233 other isoform, or with tags, fused parts or gaps): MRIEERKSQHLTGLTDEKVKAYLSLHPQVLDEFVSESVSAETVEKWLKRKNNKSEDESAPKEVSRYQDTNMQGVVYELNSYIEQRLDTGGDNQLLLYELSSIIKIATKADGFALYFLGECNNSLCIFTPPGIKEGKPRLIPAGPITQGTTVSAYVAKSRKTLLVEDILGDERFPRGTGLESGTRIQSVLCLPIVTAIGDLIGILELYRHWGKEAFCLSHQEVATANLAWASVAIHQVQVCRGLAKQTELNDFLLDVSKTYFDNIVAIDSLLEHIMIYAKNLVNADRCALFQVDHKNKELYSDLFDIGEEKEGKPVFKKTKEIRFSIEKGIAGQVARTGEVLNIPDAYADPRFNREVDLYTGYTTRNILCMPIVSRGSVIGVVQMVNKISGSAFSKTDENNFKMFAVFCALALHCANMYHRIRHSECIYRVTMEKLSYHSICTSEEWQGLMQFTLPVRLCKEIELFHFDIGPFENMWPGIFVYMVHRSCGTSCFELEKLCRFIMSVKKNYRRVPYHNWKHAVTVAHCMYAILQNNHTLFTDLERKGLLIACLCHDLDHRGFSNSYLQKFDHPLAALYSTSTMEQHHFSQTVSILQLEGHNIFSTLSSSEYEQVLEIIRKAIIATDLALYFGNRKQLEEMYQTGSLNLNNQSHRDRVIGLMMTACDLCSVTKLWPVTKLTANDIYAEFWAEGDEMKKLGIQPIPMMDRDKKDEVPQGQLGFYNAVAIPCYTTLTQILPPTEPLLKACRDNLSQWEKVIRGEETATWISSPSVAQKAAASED

| Structure (SMILES) | IC50 |
| --- | --- |
| CNC(=O)c1c(NC(=O)c2nc(C(C)(C)O)ncc2Nc2cncnc2)cnn1C [Example 340, 2-(1-Hydroxy-1-methyl-ethyl)-5-(pyrimidin-5-ylamino)-pyrimidine-4-carboxylic acid (1-methyl-5-methylcarbamoyl-1H-pyrazol-4-yl)-amide] | 250 nM |
| CC(C)(O)CNC(=O)c1ccncc1NC(=O)c1nc(C(C)(C)C)ncc1Nc1cncnc1 [Example 93, 2-tert-Butyl-5-(pyrimidin-5-ylamino)-pyrimidine-4-carboxylic acid [4-(2-hydroxy-2-methyl-propylcarbamoyl)-pyridin-3-yl]-amide] | 4.3 nM |
| CC(C)(O)CNC(=O)c1c(NC(=O)c2nc(C3CC3)cnc2Nc2cncnc2)ccc(F)c1F [Example 318, 6-Cyclopropyl-3-(pyrimidin-5-ylamino)-pyrazine-2-carboxylic acid [3,4-difluoro-2-(2-hydroxy-2-methyl-propylcarbamoyl)-phenyl]-amide] | 4.6 nM |
| CC1CCCN1C(=O)c1c(NC(=O)c2nc(C3CC3)cnc2Nc2cncnc2)cnn1C (stereo not drawn) [Example 239, 6-Cyclopropyl-3-(pyrimidin-5-ylamino)-pyrazine-2-carboxylic acid [1-methyl-5-(2-methyl-pyrrolidine-1-carbonyl)-1H-pyrazol-4-yl]-amide] | 47.7 nM |
| CN(C)CCNC(=O)c1c(NC(=O)c2nc(C3CC3)cnc2Nc2cncnc2)cnn1C [Example 313, 6-Cyclopropyl-3-(pyrimidin-5-ylamino)-pyrazine-2-carboxylic acid [5-(2-dimethylamino-ethylcarbamoyl)-1-methyl-1H-pyrazol-4-yl]-amide] | 52 nM |
| CCOC(=O)CCc1ccc(NC(=O)c2nc(C3CC3)cnc2Nc2cncnc2)c(C(=O)NC)c1 [Example 321, 3-(4-{[6-Cyclopropyl-3-(pyrimidin-5-ylamino)-pyrazine-2-carbonyl]-amino}-3-methylcarbamoyl-phenyl)-propionic acid ethyl ester] | 0.6 nM |
| CC(C)(O)CNC(=O)c1cc(F)ccc1NC(=O)c1nc(C2CC2)cnc1Nc1cncnc1 [Example 306, 6-Cyclopropyl-3-(pyrimidin-5-ylamino)-pyrazine-2-carboxylic acid [4-fluoro-2-(2-hydroxy-2-methyl-propylcarbamoyl)-phenyl]-amide] | 1.4 nM |
| O=C(NC1CCCCC1)c1ccncc1NC(=O)c1nc(C2CC2)ccc1Nc1cncnc1 [Example 78, 6-Cyclopropyl-3-(pyrimidin-5-ylamino)-pyridine-2-carboxylic acid (4-cyclohexylcarbamoyl-pyridin-3-yl)-amide] | 2 nM |
| Cn1cc(NC(=O)c2nc(C3CC3)ccc2Nc2cncnc2)c(C(=O)NCC(C)(C)O)n1 [Example 43, 6-Cyclopropyl-3-(pyrimidin-5-ylamino)-pyridine-2-carboxylic acid [3-(2-hydroxy-2-methyl-propylcarbamoyl)-1-methyl-1H-pyrazol-4-yl]-amide] | 3.1 nM |
| O=C(Nc1ccc(F)cc1C(=O)N1CCC1)c1nc(C2CC2)cnc1Nc1cncnc1 [Example 305, 6-Cyclopropyl-3-(pyrimidin-5-ylamino)-pyrazine-2-carboxylic acid [2-(azetidine-1-carbonyl)-4-fluoro-phenyl]-amide] | 4.5 nM |
| Cn1ncc(NC(=O)c2nc(C3CC3)cnc2Nc2cncnc2)c1C(=O)NCCF [Example 171, 6-Cyclopropyl-3-(pyrimidin-5-ylamino)-pyrazine-2-carboxylic acid [5-(2-fluoro-ethylcarbamoyl)-1-methyl-1H-pyrazol-4-yl]-amide] | 2.8 nM |
| CNC(=O)c1c(NC(=O)c2nc(C(C)=O)cnc2Nc2cncnc2)cnn1C [Example 184, 6-Acetyl-3-(pyrimidin-5-ylamino)-pyrazine-2-carboxylic acid (1-methyl-5-methylcarbamoyl-1H-pyrazol-4-yl)-amide] | 162 nM |
| CC(C)OCCNC(=O)c1ccncc1NC(=O)c1nc(C2CC2)cnc1Nc1cncnc1 [Example 99, 6-Cyclopropyl-3-(pyrimidin-5-ylamino)-pyrazine-2-carboxylic acid [4-(2-isopropoxy-ethylcarbamoyl)-pyridin-3-yl]-amide] | 2.6 nM |
| CC(C)(O)CNC(=O)c1c(NC(=O)c2nc(C3CC3)cnc2Nc2cncnc2)cnn1CCC(F)(F)F [Example 172, 6-Cyclopropyl-3-(pyrimidin-5-ylamino)-pyrazine-2-carboxylic acid [5-(2-hydroxy-2-methyl-propylcarbamoyl)-1-(3,3,3-trifluoro-propyl)-1H-pyrazol-4-yl]-amide] | 12.9 nM |
| CNC(=O)c1c(NC(=O)c2nc(C3CC3)cnc2Nc2cnccn2)cnn1C [Example 200, 6-Cyclopropyl-3-(pyrazin-2-ylamino)-pyrazine-2-carboxylic acid (1-methyl-5-methylcarbamoyl-1H-pyrazol-4-yl)-amide] | 426 nM |
| CC(C)(CO)NC(=O)c1ncccc1NC(=O)c1nc(C2CC2)cnc1Nc1cncnc1 [Example 273, 6-Cyclopropyl-3-(pyrimidin-5-ylamino)-pyrazine-2-carboxylic acid [2-(2-hydroxy-1,1-dimethyl-ethylcarbamoyl)-pyridin-3-yl]-amide] | 0.3 nM |
| CCn1ncc(NC(=O)c2nc(C3CC3)cnc2Nc2cncnc2)c1C(=O)NC [Example 133, 6-Cyclopropyl-3-(pyrimidin-5-ylamino)-pyrazine-2-carboxylic acid (1-ethyl-5-methylcarbamoyl-1H-pyrazol-4-yl)-amide] | 6.7 nM |
| Cn1ncc(NC(=O)c2nc(C3CC3)cnc2Nc2cncnc2)c1C(=O)N1CCCO1 [Example 335, 6-Cyclopropyl-3-(pyrimidin-5-ylamino)-pyrazine-2-carboxylic acid [5-(isoxazolidine-2-carbonyl)-1-methyl-1H-pyrazol-4-yl]-amide] | 0.8 nM |
| CN1CCC(N(C)C(=O)c2c(NC(=O)c3nc(C4CC4)cnc3Nc3cncnc3)cnn2C)C1 (stereo not drawn) [Example 247, 6-Cyclopropyl-3-(pyrimidin-5-ylamino)-pyrazine-2-carboxylic acid {1-methyl-5-[methyl-(1-methyl-pyrrolidin-3-yl)-carbamoyl]-1H-pyrazol-4-yl}-amide] | 290 nM |
| CN(C)C(=O)c1cc(F)ccc1NC(=O)c1nc(C2CC2)cnc1Nc1cncnc1 [Example 298, 6-Cyclopropyl-3-(pyrimidin-5-ylamino)-pyrazine-2-carboxylic acid (2-dimethylcarbamoyl-4-fluoro-phenyl)-amide] | 7.8 nM |
| CC1CCCCN1C(=O)c1c(NC(=O)c2nc(C3CC3)cnc2Nc2cncnc2)cnn1C (stereo not drawn) [Example 235, 6-Cyclopropyl-3-(pyrimidin-5-ylamino)-pyrazine-2-carboxylic acid [1-methyl-5-(2-methyl-piperidine-1-carbonyl)-1H-pyrazol-4-yl]-amide] | 34 nM |
| CN(C)C(=O)c1cc(F)c(F)cc1NC(=O)c1nc(C2CC2)cnc1Nc1cncnc1 [Example 284, 6-Cyclopropyl-3-(pyrimidin-5-ylamino)-pyrazine-2-carboxylic acid (2-dimethylcarbamoyl-4,5-difluoro-phenyl)-amide] | 28 nM |
| Cn1ncc(NC(=O)c2nc(C3CC3)cnc2Nc2cncnc2)c1C(=O)NCC(F)F [Example 145, 6-Cyclopropyl-3-(pyrimidin-5-ylamino)-pyrazine-2-carboxylic acid [5-(2,2-difluoro-ethylcarbamoyl)-1-methyl-1H-pyrazol-4-yl]-amide] | 2.9 nM |
| CNC(=O)c1c(NC(=O)c2nc(C3CC3)ccc2Nc2cncnc2)cnn1CC1CC1 [Example 13, 6-Cyclopropyl-3-(pyrimidin-5-ylamino)-pyridine-2-carboxylic acid (1-cyclopropylmethyl-5-methylcarbamoyl-1H-pyrazol-4-yl)-amide] | 256 nM |
| Cn1ncc(NC(=O)c2nc(C3CC3)cnc2Nc2cccnc2)c1C(=O)N1CCC1 [Example 234, 6-Cyclopropyl-3-(pyridin-3-ylamino)-pyrazine-2-carboxylic acid [5-(azetidine-1-carbonyl)-1-methyl-1H-pyrazol-4-yl]-amide] | 77.3 nM |
| CN(C(=O)c1nn(C)cc1NC(=O)c1nc(C2CC2)ccc1Nc1cncnc1)C1CCCC1 [Example 19, 6-Cyclopropyl-3-(pyrimidin-5-ylamino)-pyridine-2-carboxylic acid [3-(cyclopentyl-methyl-carbamoyl)-1-methyl-1H-pyrazol-4-yl]-amide] | 8.7 nM |
| O=C(NC1CCC1)c1ccncc1NC(=O)c1nc(C2CC2)ccc1Nc1cncnc1 [Example 58, 6-Cyclopropyl-3-(pyrimidin-5-ylamino)-pyridine-2-carboxylic acid (4-cyclobutylcarbamoyl-pyridin-3-yl)-amide] | 1.1 nM |
| O=C(Nc1cncnc1C(=O)N1CCCCC1)c1nc(C2CC2)cnc1Nc1cncnc1 [Example 212, 6-Cyclopropyl-3-(pyrimidin-5-ylamino)-pyrazine-2-carboxylic acid [4-(piperidine-1-carbonyl)-pyrimidin-5-yl]-amide] | 81.2 nM |
| CN(CCO)C(=O)c1ncccc1NC(=O)c1nc(C2CC2)cnc1Nc1cncnc1 [Example 269, 6-Cyclopropyl-3-(pyrimidin-5-ylamino)-pyrazine-2-carboxylic acid {2-[(2-hydroxy-ethyl)-methyl-carbamoyl]-pyridin-3-yl}-amide] | 12.7 nM |
| CNC(=O)c1c(NC(=O)c2nc([C@H]3CCOC3)cnc2Nc2cncnc2)cnn1C [Example 266, 3-(Pyrimidin-5-ylamino)-6-(R)-tetrahydro-furan-3-yl-pyrazine-2-carboxylic acid (1-methyl-5-methylcarbamoyl-1H-pyrazol-4-yl)-amide] | 12 nM |
